System: Human glioma cells U87
Assay: Glioma treatment in nude mice
Type: in vivo
Description: Human glioma cells U87 were subcutaneously transplanted into the back of nude mice of 6 weeks old, which were used as the tumor model after tumor formation. In the experiment, the mice were divided into 4 groups with 8 mice in each group: normal control group, model control group, ADRB3 antibody treatment group, Gemcitabine and CD40 antibody combined treatment group. The ADRB3 antibody treatment group was intraperitoneally injected with 0.1 mg of ADRB3 antibody once every 5 days for a total of 6 weeks. The model control group was intraperitoneally injected with equivalent amount of normal saline.

Nc1ccn([C@@H]2O[C@H](CO)[C@@H](O)C2(F)F)c(=O)n1 [Gemcitabine]
metastatic lesion in the lung: some metastases are found

Reference: patent publication US11524073B2, “Anti-human ADRB3 monoclonal antibody and application thereof in disease diagnosis and treatment” (priority 2017, dated 2022)
